In patent publication EP0501713B1, “Optically active aminoketone derivative and method for preparing same” (MITSUI TOATSU CHEMICALS, Inc., priority 1991, dated 1992):

Legend:
[1] = system: decerebrate rigidity induced by radio frequency lesions of rat brains; experiment: Decerebrate rigidity remission action (method of Ono et al.); type: in vivo, Wistar male rat; conditions: i.v., tension before administration = 100%
From the text: Pharmacol., 18, 57 (1987)], the rigidity remission action of the optically active aminoketone derivative of the present invention for the decerebrate rigidity induced by radio frequency lesions of rat brains was investigated.
Each Wistar male rat (body weight: 300-400 g) was anesthetized with ether and then fixed on a stereotaxic apparatus. In accordance with the Pellegrino's stereotaxic brain atlas, the electrodes of a lesion generator (manufactured by Radionics Company) were punctuated to AP: 0, L: ±1.5, V: -3. […] The rigidified rat was fixed in the abdominal position, and the tension of each extension reflex of the extensor of the hind limbs was recorded. Assuming that the tension before the administration was 100%, the rate of rigidity inhibition is expressed in terms of percentage: (100 -(Tension after administration)/(Tension before administration)× 100) [formula]
The test compounds were intravenously administered at 3 and 6 mg/kg.

[2] = system: skeletal muscle afferent discharge; experiment: Action to skeletal muscle afferent discharge (musculus triceps surae nerve fiber); type: in vivo, Wistar rats; conditions: i.v., rat, discharge frequency before administration = 100%, tension of 20 g
From the text: The musculus triceps surae was separated from each of Wistar rats (9 to 10 weeks old; Japanese rats) under a mixed anesthetic of urethane and α-chlorarose. There were cut out all the branches of the sciatic nerve except the branch which controls the musculus triceps surae. The medulla spinalis was subjected to laminectomy, and roots of L6 or less were cut out. […] A nerve fiber coming from the musculus triceps surae was only separated from the L5 posterior root. A tension of 20 g was applied to the peripheral end of the musculus triceps surae, and each discharge frequency of the nerve was recorded. Assuming that the discharge frequency before the administration is 100%, the discharge frequency of the nerve was expressed in terms of percentage: (100 -(Discharge frequency at most inhibition)/(Discharge frequency before administration)× 100) [formula]
The test compounds were intravenously administered at 6 and 12 mg/kg.

[3] = Acute toxicity; type: in vivo; conditions: mouse, in vivo, ip, intraperitoneally administered; mice observed 72 hours later
Experimental: (§1) ddy Male mice (body weights: 25-30 g) were used. Each test compound was intraperitoneally administered, and 72 hours later, the mice were observed as to whether they were alive or dead.
(§2) 50% lethal doses LD50 (mg/kg) were calculated.

[4] = system: ddy Male mice; experiment: Acute toxicity; type: in vivo; conditions: intraperitoneally administered; mice observed 72 hours later; 4320 min
Experimental: as §1, §2

| Compound | Rigidity Inhibition (%) ([1]; 3 mg/kg) | Rigidity Inhibition (%) ([1]; 6 mg/kg) | Discharge Frequency (%) ([2]; 6 mg/kg) | Discharge Frequency (%) ([2]; 12 mg/kg) | LD50 at 72 h [3] [mg/kg] | LD50 [4] [mg/kg] |
| --- | --- | --- | --- | --- | --- | --- |
| CCC(CN1CCCC1)C(=O)c1cc(-c2ccccc2)no1 (racemic) [racemic form, 3-phenyl-5-[2-(1-pyrrolidinylmethyl)butyryl]isoxazole, reference compound] | 56 | 65 | 46 | 27 | 445 | – |
| CCC(CN1CCCC1)C(=O)c1cc(-c2ccccc2)no1 (single isomer, unassigned; (+)) [(+) form, (+)-3-phenyl-5-[2-(1-pyrrolidinylmethyl)butyryl]isoxazole] | 59 | 78 | 28 | 14 | 386 | – |
| CCC(CN1CCCC1)C(=O)c1cc(-c2ccccc2)no1 (single isomer, unassigned; (-)) [(-) form, (-)-3-phenyl-5-[2-(1-pyrrolidinylmethyl)butyryl]isoxazole] | 33 | 53 | 83 | – | – | 760 |
